Laboratory results as given in patent publication US7309701B2, “Pyridazinone derivatives as pharmaceuticals and pharmaceutical compositions containing them” (Sanofi-Aventis Deutschland GmbH, priority 2002, dated 2007).

What was measured:
human recombinant GSK-3β = human recombinant GSK-3β (Homo sapiens, UniProt P49841); assay: GSK-3β activity, AlphaScreen with primed glycogen synthase substrate peptide; type: biochemical; conditions: human recombinant GSK-3β, 10 μM ATP, 60 min at room temperature, AlphaScreen; read-out: IC50
Sequence of human recombinant GSK-3β (P49841 whole entry): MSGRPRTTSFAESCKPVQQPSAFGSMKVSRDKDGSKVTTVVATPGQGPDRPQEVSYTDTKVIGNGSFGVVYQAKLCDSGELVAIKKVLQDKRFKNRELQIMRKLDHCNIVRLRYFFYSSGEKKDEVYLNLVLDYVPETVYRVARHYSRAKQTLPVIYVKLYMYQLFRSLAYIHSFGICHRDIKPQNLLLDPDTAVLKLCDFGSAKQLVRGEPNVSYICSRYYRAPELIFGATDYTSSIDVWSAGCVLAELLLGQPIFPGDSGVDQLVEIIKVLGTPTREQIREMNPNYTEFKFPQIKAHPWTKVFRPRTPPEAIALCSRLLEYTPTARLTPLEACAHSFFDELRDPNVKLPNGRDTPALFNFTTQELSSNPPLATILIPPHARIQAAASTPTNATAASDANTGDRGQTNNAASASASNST
Procedure: GSK-β activity was measured using human recombinant GSK-3β and a primed (pre-phosphorylated) substrate peptide (derived from glycogen synthase and containing the phosphorylation sites 3a, b, and c) on basis of the AlphaScreen technology in 384-well plate format (small volume plate, white, GREINER).

Tau protein = assay: Tau-phosphorylation: inhibition of phosphorylation of the Tau protein in adult rat cortex sections; type: cell-based; conditions: inhibition of Tau phosphorylation (Ser396/404, antibody AD2), 2 h incubation at 37° C.
Procedure: The compounds' activities were determined by measuring the inhibition of phosphorylation of the Tau protein in adult rat cortex sections. The cortex sections having a thickness of 300 μm were prepared from 8-10-week old male OFA rats (Iffa-Credo), sacrificed by decapitation. They were incubated in 5 ml of DMEM medium containing pyruvate and glucose 4.5 g/l at 37° C. for 40 min. The sections were then washed twice with the medium, distributed into microtubes (50 μl in 500 μl of medium with or without test compounds), and incubated at 37° C., with stirring. Two hours later, the experiment was stopped by centrifugation. The sections were washed, sonicated and centrifuged at 18300 g, for 15 min at 4° C. The concentration of proteins in supernatant was determined by a commercial assay (BCA Protein Assay, Pierce) based on the Lowry method. The samples, denatured beforehand for 10 min at 70° C., were separated on a 4-12% Bis-Tris vertical gel in the presence of MOPS-SDS buffer and electrotransferred onto nitrocellulose membrane. Immunolabeling was performed with their monoclonal antibody AD2 which specifically recognizes the phosphorylated epitopes Ser396/404 of the Tau protein. The immunoactive proteins were visualized by adding a second antibody directed against the mouse IgG's and coupled to peroxidase and a chemiluminescent substrate. The autoradiograms obtained were finally quantified using the ‘GeneTools’ software from Syngene (GeneGnome, Ozyme) in order to determine an IC50.

| SMILES | IC50 (human recombinant GSK-3β) | IC50 (Tau protein) | melting point |
| --- | --- | --- | --- |
| O=C(NCc1ccc(Cl)cc1)c1cc(-c2cccc(O)c2)n[nH]c1=O [Example 53] | 4.4 µM | 19 µM |  |
| O=C(NCc1ccncc1)c1cc(-c2ccncc2)n[nH]c1=O [Example 8, 3-oxo-6-pyridin-4-yl-N-(pyridin-4-ylmethyl)-2,3-dihydropyridazine-4-carboxamide] |  | 9 µM | 254 °C |
| O=C(NCc1ccc(Cl)cc1)c1cc(-c2ccncc2)n[nH]c1=O [Example 4, N-(4-chlorobenzyl)-3-oxo-6-pyridin-4-yl-2,3-dihydropyridazine-4-carboxamide] | 0.18 µM | 13 µM | 250 °C |
| Cc1cc(-c2cc(C(=O)NCc3ccc(Cl)cc3)c(=O)[nH]n2)cc(C)c1O [Example 52, 6-(4-Hydroxy-3,5-dimethyl-phenyl)-3-oxo-2,3-dihydro-pyridazine-4-carboxylic acid 4-chloro-benzylamide] | > 10 µM | 19 µM |  |
| O=C(NCc1ccc(C(F)(F)F)cc1)c1cc(-c2ccncc2)n[nH]c1=O [Example 10, 3-oxo-6-pyridin-4-yl-N-[4-(trifluoromethyl)benzyl]-2,3-dihydropyridazine-4-carboxamide] |  | 9.5 µM | 227 °C |
| O=C(NCc1ccc(Cl)cc1Cl)c1cc(-c2ccncc2)n[nH]c1=O [Example 2, N-(2,4-dichlorobenzyl)-3-oxo-6-pyridin-4-yl-2,3-dihydropyridazine-4-carboxamide] | 0.72 µM | 22 µM | 233 °C |
| O=C(NCc1ccccc1)c1cc(-c2ccc(O)cc2)n[nH]c1=O [Example 19, N-benzyl-3-oxo-6-[4-(hydroxy)phenyl]-2,3-dihydropyridazine-4-carboxamide] |  | 4.1 µM |  |
| O=C(NCc1ccc(Cl)cc1Cl)c1cc(-c2ccc(O)cc2)n[nH]c1=O [Example 22, N-(2,4-Dichlorbenzyl)-3-oxo-6-[4-(hydroxy)phenyl]-2,3-dihydropyridazine-4-carboxylic acid] |  | 22 µM |  |

The next compounds have a lower IC50 (Tau protein) than those just listed; values first:

| IC50 (human recombinant GSK-3β) | IC50 (Tau protein) | melting point | SMILES |
| --- | --- | --- | --- |
|  | 3.5 µM | 265 °C | O=C(NCc1ccc(Cl)c(Cl)c1)c1cc(-c2ccncc2)n[nH]c1=O [Example 16, N-(3,4-dichlorobenzyl)-3-oxo-6-pyridin-4-yl-2,3-dihydropyridazine-4-carboxamide] |
| 0.095 µM | 1.1 µM |  | O=C(NCCCc1ccccc1)c1cc(-c2ccncc2)n[nH]c1=O [Example 66, 3-Oxo-6-pyridin-4-yl-2,3-dihydro-pyridazine-4-carboxylic acid (3-phenyl-propyl)-amide; compoundwith trifluoro-aceticacid] |
| 2.8 µM | 0.3 µM |  | O=C(NCc1ccc(Cl)cc1)c1cc(-c2ccc(O)cc2)n[nH]c1=O [Example 40, 6-(4-Hydroxy-phenyl)-3-oxo-2,3-dihydro-pyridazine-4-carboxylic acid 4-chloro-benzylamide] |
|  | 0.24 µM |  | CNc1nccc(-c2cc(C(=O)NCc3ccc(Cl)cc3)c(=O)[nH]n2)n1 [Example 34, 6-(2-Methylamino-pyrimidin-4-yl)-3-oxo-2,3-dihydro-pyridazine-4-carboxylic acid 4-chloro-benzylamide] |
